Measured values reported in patent EP1944293A1, “Alpha-Polymorph of a substituted pyrazoline, its preparation and use as medicaments” (Laboratorios del Dr. Esteve S.A., priority 2007, dated 2008).

Assays:
Solubility = format: physicochemical
Herg channel = Herg channel (Homo sapiens, UniProt Q12809); assay: Herg channel affinity; details: low risk of prolongation of the QT-interval expected
[1] = Stability of the crystalline form; format: physicochemical; details: under certain conditions, especially around room temperature, and/or over time
[2] = Plasma insulin assay in dietary-induced obese rats; format: in vivo, female Wistar rats; details: Figure 6
Protocol: (§1) The experiment was performed on female Wistar rats (originally in the weight range 250-300 g). The rats were housed in pairs in polypropylene cages with solid floors and sawdust bedding at a temperature of 21±4°C and 55±20% humidity. Animals were maintained on a reverse phase light-dark cycle (lights off for 8 h from 09.30-17.30 h) during which time the room was illuminated by red light. Animals had free access to powdered high fat diet (VRF1 plus 20% lard), ground chocolate, ground peanuts and tap water at all times. The three different diets were contained in separate glass feeding jars with aluminum lids with a 3-4 cm hole cut in it to allow access to the food. Animals were housed in pairs for twelve weeks for the induction of obesity. Animals were then housed singly in polypropylene cages with wire grid floors to enable the food intake of each rat to be recorded. […] Animals were accustomed to these new conditions (individual housing and the wire-grid floor cages) for at least 14 days before the start of the baseline readings. […] Plasma insulin concentration was determined using Mercodia ultrasensitive rat insulin ELISA kits according to the manufacturers 50 µl sample protocol. […] Optical density at 450 nm was determined using a Molecular Devices VERSAmax tunable microplate reader and readings transferred to GraphPad Prism. […]

[3] = Determination of carcass fat content in dietary-induced obese rats; format: in vivo, female Wistar rats; details: g per rat, Figure 4
Protocol: The experiment was performed on female Wistar rats (originally in the weight range 250-300 g). The rats were housed in pairs in polypropylene cages with solid floors and sawdust bedding at a temperature of 21±4°C and 55±20% humidity. Animals were maintained on a reverse phase light-dark cycle (lights off for 8 h from 09.30-17.30 h) during which time the room was illuminated by red light. Animals had free access to powdered high fat diet (VRF1 plus 20% lard), ground chocolate, ground peanuts and tap water at all times. The three different diets were contained in separate glass feeding jars with aluminum lids with a 3-4 cm hole cut in it to allow access to the food. Animals were housed in pairs for twelve weeks for the induction of obesity. Animals were then housed singly in polypropylene cages with wire grid floors to enable the food intake of each rat to be recorded. […] Animals were accustomed to these new conditions (individual housing and the wire-grid floor cages) for at least 14 days before the start of the baseline readings. […] Percentage fat in the freeze-dried sample was calculated as follows: % fat = [100 × (final cup weight-initial cup weight)]/sample weight [formula] Percentage fat in the original sample was calculated using the % water as follows: % fat in original sample = % fat[(100-%water)/100] […]

[4] = Feeding study in dietary-induced obese rats: food intake and body weight; format: in vivo, female Wistar rats; details: end of 28 day treatment, Figure 3
Protocol: The experiment was performed on female Wistar rats (originally in the weight range 250-300 g). The rats were housed in pairs in polypropylene cages with solid floors and sawdust bedding at a temperature of 21±4°C and 55±20% humidity. Animals were maintained on a reverse phase light-dark cycle (lights off for 8 h from 09.30-17.30 h) during which time the room was illuminated by red light. Animals had free access to powdered high fat diet (VRF1 plus 20% lard), ground chocolate, ground peanuts and tap water at all times. The three different diets were contained in separate glass feeding jars with aluminum lids with a 3-4 cm hole cut in it to allow access to the food. Animals were housed in pairs for twelve weeks for the induction of obesity. Animals were then housed singly in polypropylene cages with wire grid floors to enable the food intake of each rat to be recorded. Polypropylene trays with cage pads were placed beneath each cage to detect any food spillage. Animals were accustomed to these new conditions (individual housing and the wire-grid floor cages) for at least 14 days before the start of the baseline readings. […] Food intake and body weight were measured once daily. […] Thus, means were adjusted for differences in body weight between the groups on Day 1 and standard errors of the mean (SEM) were calculated from the residuals of the statistical model. […]

[5] = Plasma leptin assay in dietary-induced obese rats; format: in vivo, female Wistar rats; details: Figure 5
Protocol: as §1, with “leptin” for “insulin”, “Assay Designs” for “Mercodia ultrasensitive”, “leptin enzyme immunometric assay” for “insulin ELISA”, “kits (Cat No. 900-015)” for “kits”, “manufacturer's regular” for “manufacturers 50 µl sample”

[6] = target: T1, recombinant human cannabinoid 1 receptor (CB1) (Homo sapiens, UniProt P21554); assay: In vitro determination of antagonism to CB1-receptor, [35S]GTPγS binding assay; format: biochemical; details: compound 1 µM versus agonist WIN 55,212-2; 100 % = maximal antagonism with Rimonabant (1 µM)
T1 construct: expressed in transfected cells
Protocol: The reaction is performed in 96-well plates. […] Radioactivity is determined using a Wallac Microbeta Trilux. Each experiment is performed at least in duplicate.
The average of basal [^35S]GTPγS binding is subtracted from all binding data.

[7] = 10 mg/kg po once daily for 28 days
[8] = 30 mg/kg po once daily for 28 days

T1 sequence (P21554 whole entry): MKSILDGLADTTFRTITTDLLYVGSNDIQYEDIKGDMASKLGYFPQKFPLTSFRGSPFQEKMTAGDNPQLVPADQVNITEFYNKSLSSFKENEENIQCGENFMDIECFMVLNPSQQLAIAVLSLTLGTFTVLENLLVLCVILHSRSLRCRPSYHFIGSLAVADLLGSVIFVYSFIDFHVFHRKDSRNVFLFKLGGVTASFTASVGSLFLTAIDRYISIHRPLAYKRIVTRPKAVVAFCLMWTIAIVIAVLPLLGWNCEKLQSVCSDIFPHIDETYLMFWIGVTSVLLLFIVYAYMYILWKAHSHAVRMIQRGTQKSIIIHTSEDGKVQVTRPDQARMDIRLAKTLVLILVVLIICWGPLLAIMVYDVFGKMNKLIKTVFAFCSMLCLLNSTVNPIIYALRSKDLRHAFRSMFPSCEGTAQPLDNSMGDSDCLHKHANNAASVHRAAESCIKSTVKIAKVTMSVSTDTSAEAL
Sequence of Herg channel (Q12809 whole entry): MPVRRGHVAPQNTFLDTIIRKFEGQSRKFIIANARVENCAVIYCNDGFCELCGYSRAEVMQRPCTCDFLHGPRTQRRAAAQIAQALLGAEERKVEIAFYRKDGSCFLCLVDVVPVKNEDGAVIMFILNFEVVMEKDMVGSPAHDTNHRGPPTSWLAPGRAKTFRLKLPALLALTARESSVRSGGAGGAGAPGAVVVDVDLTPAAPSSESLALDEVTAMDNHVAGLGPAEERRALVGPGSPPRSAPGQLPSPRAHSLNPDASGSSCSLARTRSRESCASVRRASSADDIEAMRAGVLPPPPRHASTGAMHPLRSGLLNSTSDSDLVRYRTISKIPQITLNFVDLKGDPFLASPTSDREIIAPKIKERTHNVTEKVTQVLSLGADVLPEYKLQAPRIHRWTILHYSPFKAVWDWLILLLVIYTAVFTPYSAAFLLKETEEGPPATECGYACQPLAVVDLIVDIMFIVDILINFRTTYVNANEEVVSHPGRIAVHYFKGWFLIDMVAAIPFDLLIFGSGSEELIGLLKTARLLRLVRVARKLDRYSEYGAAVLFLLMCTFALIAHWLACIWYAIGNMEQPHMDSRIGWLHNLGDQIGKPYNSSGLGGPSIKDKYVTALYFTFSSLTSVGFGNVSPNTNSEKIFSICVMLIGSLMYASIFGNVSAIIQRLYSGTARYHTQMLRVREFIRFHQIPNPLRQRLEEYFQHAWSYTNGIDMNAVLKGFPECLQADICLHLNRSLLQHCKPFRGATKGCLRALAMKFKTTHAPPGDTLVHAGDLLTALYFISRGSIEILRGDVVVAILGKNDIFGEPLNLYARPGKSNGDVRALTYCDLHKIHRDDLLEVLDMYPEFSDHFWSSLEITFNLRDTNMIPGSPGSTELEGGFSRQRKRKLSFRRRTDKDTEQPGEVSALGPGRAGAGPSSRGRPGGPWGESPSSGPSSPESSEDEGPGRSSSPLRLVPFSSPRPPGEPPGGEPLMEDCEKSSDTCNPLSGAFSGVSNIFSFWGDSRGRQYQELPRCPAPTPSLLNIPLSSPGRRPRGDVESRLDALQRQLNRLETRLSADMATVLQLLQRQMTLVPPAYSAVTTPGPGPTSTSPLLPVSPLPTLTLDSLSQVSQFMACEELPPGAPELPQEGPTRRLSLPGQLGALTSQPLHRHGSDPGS

Row | Structure (SMILES) | solubility (Solubility) | Herg channel affinity (Herg channel) | stability [1] | decrease of plasma insulin levels compared to the vehicle-treated control group [2, 7] [%] | decrease of plasma insulin levels compared to the vehicle-treated control group [2, 8] [%] | decrease in body fat compared to the vehicle-treated control group [3, 7] [g] | decrease in body fat compared to the vehicle-treated control group [3, 8] [g] | body weights lower than those of the vehicle-treated controls ([4]; 10 mg/kg po once daily) [%] | body weights lower than those of the vehicle-treated controls ([4]; 30 mg/kg po once daily) [%] | decrease of plasma leptin levels compared to the vehicle-treated control group [5, 7] [%] | decrease of plasma leptin levels compared to the vehicle-treated control group [5, 8] [%] | Antagonism [%] [6] [%]
1 | O=C(NN1CCCCC1)C1=NN(c2ccc(Cl)cc2Cl)[C@@H](c2ccc(Cl)cc2)C1 [α-Polymorph, α-Polymorph of (R)-N-piperidinyl-5-(4-chlorophenyl)-1-(2,4-dichlorophenyl)-4,5-dihydro-1H-pyrazole-3-carboxamide] | relatively good | relatively weak | good stability | – | – | – | – | – | – | – | – | –
2 | O=C(NN1CCCCC1)C1=NN(c2ccc(Cl)cc2Cl)[C@@H](c2ccc(Cl)cc2)C1 [Compound A, (R)-N-piperidinyl-5-(4-chlorophenyl)-1-(2,4-dichlorophenyl)-4,5-dihydro-1H-pyrazole-3-carboxamide] | – | – | – | 38.9 | 41.8 | 42.8 | 67.8 | 12.0 | 19.0 | 36.1 | 61.7 | 106
